pKi: −log10 of the molar value.
Columns and labels:
DDR2 = biological target: T1, DDR2 (Homo sapiens, UniProt Q16832); assay: LanthaScreen Europium Kinase Binding assay, DDR2; conditions: 5 nM DDR2, 10 nM Kinase Tracer 178, 1 h at rt; Ki from IC50 by Cheng-Prusoff; read-out: Ki DDR2
T1 construct: purchased Life Technologies
T1 sequence (Q16832 22-855): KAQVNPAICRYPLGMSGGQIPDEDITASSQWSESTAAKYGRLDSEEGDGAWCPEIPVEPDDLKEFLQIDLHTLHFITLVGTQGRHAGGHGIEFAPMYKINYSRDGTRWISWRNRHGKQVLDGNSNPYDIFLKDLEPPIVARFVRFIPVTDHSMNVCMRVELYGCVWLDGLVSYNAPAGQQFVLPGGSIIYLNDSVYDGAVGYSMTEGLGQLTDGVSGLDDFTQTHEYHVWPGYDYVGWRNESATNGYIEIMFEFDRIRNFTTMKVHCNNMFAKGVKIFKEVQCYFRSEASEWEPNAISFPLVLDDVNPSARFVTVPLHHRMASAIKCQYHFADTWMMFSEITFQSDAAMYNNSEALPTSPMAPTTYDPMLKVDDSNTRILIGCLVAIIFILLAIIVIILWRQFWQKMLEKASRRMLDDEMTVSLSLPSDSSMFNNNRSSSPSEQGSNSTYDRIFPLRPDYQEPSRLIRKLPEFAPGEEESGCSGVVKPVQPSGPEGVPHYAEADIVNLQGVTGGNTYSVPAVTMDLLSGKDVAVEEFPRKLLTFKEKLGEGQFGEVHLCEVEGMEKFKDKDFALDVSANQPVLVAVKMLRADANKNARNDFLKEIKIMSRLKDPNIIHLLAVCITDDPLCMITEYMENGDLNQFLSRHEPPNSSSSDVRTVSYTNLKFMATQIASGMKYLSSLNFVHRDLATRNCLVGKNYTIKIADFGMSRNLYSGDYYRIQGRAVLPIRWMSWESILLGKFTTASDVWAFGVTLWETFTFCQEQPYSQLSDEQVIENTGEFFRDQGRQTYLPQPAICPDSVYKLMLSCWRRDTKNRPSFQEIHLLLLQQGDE
Procedure: (§1) DDR1 and DDR2 binding assays were performed using Life Technologies LanthaScreen™ Europium Kinase Binding assay. […] IC50 values were determined in GraphPad Prism 7.0 software, using 4 parameter model: log (inhibitor) vs. response. IC50 values were converted in Ki using the Cheng-Prusoff equation (Ki-IC50/(1+ [Tracer]/Kd).

DDR1 = biological target: T2, DDR1 (Homo sapiens, UniProt Q08345); assay: LanthaScreen Europium Kinase Binding assay, DDR1; conditions: 5 nM DDR1, 20 nM Kinase Tracer 178, 1 h at rt; Ki from IC50 by Cheng-Prusoff; read-out: Ki DDR1
T2 construct: purchased Carna Biosciences
Procedure: as §1

T2 sequence (Q08345 19-913): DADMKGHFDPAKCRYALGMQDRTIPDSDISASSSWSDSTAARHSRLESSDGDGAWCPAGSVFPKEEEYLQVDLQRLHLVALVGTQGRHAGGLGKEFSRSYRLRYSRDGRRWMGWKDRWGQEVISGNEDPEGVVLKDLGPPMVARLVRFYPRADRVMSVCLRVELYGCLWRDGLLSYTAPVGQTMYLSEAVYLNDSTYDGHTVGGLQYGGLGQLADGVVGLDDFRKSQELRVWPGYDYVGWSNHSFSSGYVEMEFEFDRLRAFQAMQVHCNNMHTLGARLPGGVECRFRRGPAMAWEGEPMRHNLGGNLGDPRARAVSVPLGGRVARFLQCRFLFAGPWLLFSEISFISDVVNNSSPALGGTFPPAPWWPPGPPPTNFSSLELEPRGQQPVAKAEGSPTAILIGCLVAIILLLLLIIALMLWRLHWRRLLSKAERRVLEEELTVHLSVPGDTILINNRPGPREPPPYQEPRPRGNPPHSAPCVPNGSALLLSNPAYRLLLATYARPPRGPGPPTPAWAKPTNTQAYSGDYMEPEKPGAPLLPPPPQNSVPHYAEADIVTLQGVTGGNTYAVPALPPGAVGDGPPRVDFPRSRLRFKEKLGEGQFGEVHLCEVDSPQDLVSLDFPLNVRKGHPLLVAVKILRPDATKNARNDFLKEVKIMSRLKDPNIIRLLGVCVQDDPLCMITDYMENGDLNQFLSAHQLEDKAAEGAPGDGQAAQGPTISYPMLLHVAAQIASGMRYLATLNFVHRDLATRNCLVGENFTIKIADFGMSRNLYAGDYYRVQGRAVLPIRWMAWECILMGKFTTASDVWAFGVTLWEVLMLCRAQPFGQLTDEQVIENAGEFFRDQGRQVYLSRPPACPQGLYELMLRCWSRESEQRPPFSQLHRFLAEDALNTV

pKi (DDR2) | pKi (DDR1) | Compound
7.60 to 8.30 | 7.60 to 8.30 | CN(C(=O)Nc1cncc(C(F)(F)F)c1)C1CC2(C1)CN(C(=O)c1cnn3cc(N4CCCC4)ccc13)C2 [Example 240, 1-methyl-1-(2-(6-(pyrrolidin-1-yl)pyrazolo[1,5-a]pyridine-3-carbonyl)-2-azaspiro[3.3]heptan-6-yl)-3-(5-(trifluoromethyl)pyridin-3-yl)urea]
7.60 to 8.30 | > 8.30 | CN(C(=O)Nc1cc(C(F)(F)F)ccn1)C1CC2(C1)CN(C(=O)c1cnn3cc(-c4cnn(C)c4)ccc13)C2 [Example 241, 1-methyl-1-(2-(6-(1-methyl-1H-pyrazol-4-yl)pyrazolo[1,5-a]pyridine-3-carbonyl)-2-azaspiro[3.3]heptan-6-yl)-3-(4-(trifluoromethyl)pyridin-2-yl)urea]
7.60 to 8.30 | > 8.30 | CN(C(=O)Nc1cc(OC(F)(F)F)ccn1)C1CC2(C1)CN(C(=O)c1cnn3cc(-c4cnn(C)c4)ccc13)C2 [Example 242, 1-(2-(6-(1,2-dimethyl-1H-214-pyrazol-4-yl)pyrazolo[1,5-a]pyridine-3-carbonyl)-2-azaspiro[3.3]heptan-6-yl)-1-methyl-3-(4-(trifluoromethoxy)pyridin-2-yl)urea]
7.60 to 8.30 | > 8.30 | CN(C(=O)Nc1cncc(C(F)(F)F)c1)C1CC2(C1)CN(C(=O)c1cnn3ccc(N)cc13)C2 [Example 244, 1-(2-(5-aminopyrazolo[1,5-a]pyridine-3-carbonyl)-2-azaspiro[3.3]heptan-6-yl)-1-methyl-3-(5-(trifluoromethyl)pyridin-3-yl)urea]
7.60 to 8.30 | > 8.30 | CN(C(=O)Nc1cncc(C(F)(F)F)c1)C1CC2(C1)CN(C(=O)c1cnn3cc(-c4cncnc4)ccc13)C2 [Example 245, 1-methyl-1-(2-(6-(pyrimidin-5-yl)pyrazolo[1,5-a]pyridine-3-carbonyl)-2-azaspiro[3.3]heptan-6-yl)-3-(5-(trifluoromethyl)pyridin-3-yl)urea]
7.00 to 7.60 | 7.60 to 8.30 | Cc1ncc(-c2ccc3c(C(=O)N4CC5(CC(N(C)C(=O)Nc6cncc(C(F)(F)F)c6)C5)C4)cnn3c2)cn1 [Example 246, 1-methyl-1-(2-(6-(2-methylpyrimidin-5-yl)pyrazolo[1,5-a]pyridine-3-carbonyl)-2-azaspiro[3.3]heptan-6-yl)-3-(5-(trifluoromethyl)pyridin-3-yl)urea]
7.60 to 8.30 | > 8.30 | CN(C(=O)Nc1cccc(C(F)(F)F)c1)C1CC2(C1)CN(C(=O)c1ncnc3[nH]ccc13)C2 [Example 247, 1-(2-(7H-pyrrolo[2,3-d]pyrimidine-4-carbonyl)-2-azaspiro[3.3]heptan-6-yl)-1-methyl-3-(3-(trifluoromethyl)phenyl)urea]
7.60 to 8.30 | > 8.30 | CN(C(=O)Nc1cccc(C(F)(F)F)c1)C1CC2(C1)CN(C(=O)c1ccnc3[nH]ccc13)C2 [Example 248, 1-(2-(1H-pyrrolo[2,3-b]pyridine-4-carbonyl)-2-azaspiro[3.3]heptan-6-yl)-1-methyl-3-(3-(trifluoromethyl)phenyl)urea]
7.60 to 8.30 | > 8.30 | CN(C(=O)Nc1cncc(C(F)(F)F)c1)C1CC2(C1)CN(C(=O)c1cnn3cc(-c4ccncc4)ccc13)C2 [Example 249, 1-methyl-1-(2-(6-(pyridin-4-yl)pyrazolo[1,5-a]pyridine-3-carbonyl)-2-azaspiro[3.3]heptan-6-yl)-3-(5-(trifluoromethyl)pyridin-3-yl)urea]
7.00 to 7.60 | > 8.30 | COc1ccc2c(C(=O)N3CC4(CC(N(C)C(=O)Nc5cncc(C(F)(F)F)c5)C4)C3)cnn2c1 [Example 250, 1-(2-(6-methoxypyrazolo[1,5-a]pyridine-3-carbonyl)-2-azaspiro[3.3]heptan-6-yl)-1-methyl-3-(5-(trifluoromethyl)pyridin-3-yl)urea]
7.60 to 8.30 | > 8.30 | COc1ccn2ncc(C(=O)N3CC4(CC(N(C)C(=O)Nc5cncc(C(F)(F)F)c5)C4)C3)c2c1 [Example 251, 1-(2-(5-methoxypyrazolo[1,5-a]pyridine-3-carbonyl)-2-azaspiro[3.3]heptan-6-yl)-1-methyl-3-(5-(trifluoromethyl)pyridin-3-yl)urea]
7.60 to 8.30 | > 8.30 | CN(C(=O)Nc1cncc(C(F)(F)F)c1)C1CC2(C1)CN(C(=O)c1cnn3ccc(N4CCC(F)(F)C4)cc13)C2 [Example 252, 1-(2-(5-(3,3-difluoropyrrolidin-1-yl)pyrazolo[1,5-a]pyridine-3-carbonyl)-2-azaspiro[3.3]heptan-6-yl)-1-methyl-3-(5-(trifluoromethyl)pyridin-3-yl)urea]
7.60 to 8.30 | > 8.30 | COc1ccc(-c2ccc3c(C(=O)N4CC5(CC(N(C)C(=O)Nc6cncc(C(F)(F)F)c6)C5)C4)cnn3c2)cn1 [Example 253, 1-(2-(6-(6-methoxypyridin-3-yl)pyrazolo[1,5-a]pyridine-3-carbonyl)-2-azaspiro[3.3]heptan-6-yl)-1-methyl-3-(5-(trifluoromethyl)pyridin-3-yl)urea]
7.60 to 8.30 | > 8.30 | CN(C(=O)Nc1cc(I)ccn1)C1CC2(C1)CN(C(=O)c1cnn3ccn(C)c13)C2 [Example 254, 3-(4-iodopyridin-2-yl)-1-methyl-1-(2-(1-methyl-1H-imidazo[1,2-b]pyrazole-7-carbonyl)-2-azaspiro[3.3]heptan-6-yl)urea]
7.60 to 8.30 | > 8.30 | CN(C(=O)Nc1cc(C(F)F)ccn1)C1CC2(C1)CN(C(=O)c1cnn3ccsc13)C2 [Example 255, 3-(4-(difluoromethyl)pyridin-2-yl)-1-methyl-1-(2-(pyrazolo[5,1-b]thiazole-7-carbonyl)-2-azaspiro[3.3]heptan-6-yl)urea]
7.60 to 8.30 | > 8.30 | COc1cc(C(F)(F)F)cc(NC(=O)N(C)C2CC3(C2)CN(C(=O)c2cnn4ccn(C)c24)C3)n1 [Example 256, 3-(6-methoxy-4-(trifluoromethyl)pyridin-2-yl)-1-methyl-1-(2-(1-methyl-1H-imidazo[1,2-b]pyrazole-7-carbonyl)-2-azaspiro[3.3]heptan-6-yl)urea]
7.60 to 8.30 | > 8.30 | CN(C(=O)Nc1cc(C(F)(F)F)cc(C(F)(F)F)c1)C1CC2(C1)CN(C(=O)c1cnn3ccn(C)c13)C2 [Example 257, 3-(3,5-bis(trifluoromethyl)phenyl)-1-methyl-1-(2-(1-methyl-1H-imidazo[1,2-b]pyrazole-7-carbonyl)-2-azaspiro[3.3]heptan-6-yl)urea]
7.60 to 8.30 | > 8.30 | Cc1nn(C)cc1-c1ccc2c(C(=O)N3CC4(CC(N(C)C(=O)Nc5cncc(C(F)(F)F)c5)C4)C3)cnn2c1 [Example 258, 1-(2-(6-(1,3-dimethyl-1H-pyrazol-4-yl)pyrazolo[1,5-a]pyridine-3-carbonyl)-2-azaspiro[3.3]heptan-6-yl)-1-methyl-3-(5-(trifluoromethyl)pyridin-3-yl)urea]
7.00 to 7.60 | > 8.30 | CN(C(=O)Nc1cc(C(F)(F)F)cnn1)C1CC2(C1)CN(C(=O)c1cnn3ccccc13)C2 [Example 259, 1-methyl-1-(2-(pyrazolo[1,5-a]pyridine-3-carbonyl)-2-azaspiro[3.3]heptan-6-yl)-3-(5-(trifluoromethyl)pyridazin-3-yl)urea]
7.60 to 8.30 | > 8.30 | COc1ccc(C(F)(F)F)cc1NC(=O)N(C)C1CC2(C1)CN(C(=O)c1ncnc3[nH]ccc13)C2 [Example 260, 1-(2-(7H-pyrrolo[2,3-d]pyrimidine-4-carbonyl)-2-azaspiro[3.3]heptan-6-yl)-3-(2-methoxy-5-(trifluoromethyl)phenyl)-1-methylurea]
7.60 to 8.30 | > 8.30 | Cc1c(-c2ccc3c(C(=O)N4CC5(CC(N(C)C(=O)Nc6cncc(C(F)(F)F)c6)C5)C4)cnn3c2)cnn1C [Example 261, 1-(2-(6-(1,5-dimethyl-1H-pyrazol-4-yl)pyrazolo[1,5-a]pyridine-3-carbonyl)-2-azaspiro[3.3]heptan-6-yl)-1-methyl-3-(5-(trifluoromethyl)pyridin-3-yl)urea]
7.60 to 8.30 | > 8.30 | COc1ncc(C(F)(F)F)cc1NC(=O)NC1CC2(C1)CN(C(=O)c1cnn3ccsc13)C2 [Example 262, 1-(2-methoxy-5-(trifluoromethyl)pyridin-3-yl)-3-(2-(pyrazolo[5,1-b]thiazole-7-carbonyl)-2-azaspiro[3.3]heptan-6-yl)urea]

— US20260285855A1, “HETEROARYL DERIVATIVES AS DDRS INHIBITORS” (CHIESI FARMACEUTICI S.P.A., priority 2023, published 2026)
